Key:
collagenase H (ColH) = conditions: cited from earlier work; for ColH inhibitory activity: tested in their thiocarbamate form
MMP-2 = target: T1, MMP-2 (Homo sapiens, UniProt P08253); assay: MMP in vitro inhibition assay, MMP-2; format: biochemical
T1 sequence (P08253 110-660): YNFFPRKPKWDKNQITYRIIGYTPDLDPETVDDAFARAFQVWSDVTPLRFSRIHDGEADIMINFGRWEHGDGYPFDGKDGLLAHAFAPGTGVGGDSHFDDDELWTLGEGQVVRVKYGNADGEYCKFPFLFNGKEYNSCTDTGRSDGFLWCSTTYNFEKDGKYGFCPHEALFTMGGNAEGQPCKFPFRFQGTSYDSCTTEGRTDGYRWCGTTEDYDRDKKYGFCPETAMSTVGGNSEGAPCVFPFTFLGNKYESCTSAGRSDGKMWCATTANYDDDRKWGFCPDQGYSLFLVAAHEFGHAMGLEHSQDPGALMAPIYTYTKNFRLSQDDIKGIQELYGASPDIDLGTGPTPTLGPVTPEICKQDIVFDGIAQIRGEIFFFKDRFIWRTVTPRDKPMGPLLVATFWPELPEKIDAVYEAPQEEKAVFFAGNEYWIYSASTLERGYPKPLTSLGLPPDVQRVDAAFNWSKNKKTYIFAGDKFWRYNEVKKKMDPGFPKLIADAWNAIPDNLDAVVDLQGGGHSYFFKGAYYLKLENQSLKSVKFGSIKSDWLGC

HDAC-3 = HDAC-3 (Homo sapiens, UniProt O15379); format: biochemical
HDAC-3, sequence (O15379 whole entry): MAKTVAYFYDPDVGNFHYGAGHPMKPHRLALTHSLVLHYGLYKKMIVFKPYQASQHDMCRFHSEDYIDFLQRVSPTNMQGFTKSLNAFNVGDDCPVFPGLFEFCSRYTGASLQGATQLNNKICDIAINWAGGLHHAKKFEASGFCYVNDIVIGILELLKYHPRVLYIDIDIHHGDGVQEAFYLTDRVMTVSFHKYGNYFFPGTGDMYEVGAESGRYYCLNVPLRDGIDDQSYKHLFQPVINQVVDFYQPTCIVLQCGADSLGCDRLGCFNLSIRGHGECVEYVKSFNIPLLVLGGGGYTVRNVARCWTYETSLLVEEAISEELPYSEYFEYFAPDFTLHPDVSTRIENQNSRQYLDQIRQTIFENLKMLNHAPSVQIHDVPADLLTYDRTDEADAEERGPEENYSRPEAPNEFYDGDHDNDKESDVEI
HDAC-3, sequence (Q9Y618 395-489 partner limits assumed): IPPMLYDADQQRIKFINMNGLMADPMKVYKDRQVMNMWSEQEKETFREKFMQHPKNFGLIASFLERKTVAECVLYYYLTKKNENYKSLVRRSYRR

zebrafish embryos = conditions: cited from earlier work
HepG2 = conditions: at 100 μM; cited from earlier work
HEK293 = conditions: at 100 μM; cited from earlier work
MMP-8 = MMP-8 (Homo sapiens, UniProt P22894); assay: MMP in vitro inhibition assay, MMP-8; format: biochemical
MMP-8, sequence (P22894 101-467): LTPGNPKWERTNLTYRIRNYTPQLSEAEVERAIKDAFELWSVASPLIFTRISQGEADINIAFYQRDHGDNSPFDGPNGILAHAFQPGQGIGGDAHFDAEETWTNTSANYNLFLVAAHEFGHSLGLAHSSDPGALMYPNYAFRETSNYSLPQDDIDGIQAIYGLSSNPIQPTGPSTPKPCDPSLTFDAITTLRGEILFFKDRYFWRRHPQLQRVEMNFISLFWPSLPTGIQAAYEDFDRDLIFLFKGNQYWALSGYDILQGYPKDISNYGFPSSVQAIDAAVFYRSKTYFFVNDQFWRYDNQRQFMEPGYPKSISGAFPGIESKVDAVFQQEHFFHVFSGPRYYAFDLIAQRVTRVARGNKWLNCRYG

MMP-7 = target: T2, MMP-7 (Homo sapiens, UniProt P09237); assay: MMP in vitro inhibition assay, MMP-7; format: biochemical
T2 sequence (P09237 95-267): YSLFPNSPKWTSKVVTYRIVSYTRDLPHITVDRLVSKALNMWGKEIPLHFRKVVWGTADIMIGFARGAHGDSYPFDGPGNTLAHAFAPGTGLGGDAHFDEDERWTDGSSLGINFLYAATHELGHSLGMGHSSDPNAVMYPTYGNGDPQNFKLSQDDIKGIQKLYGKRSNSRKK

HDAC-8 = target: T3, HDAC-8 (Homo sapiens, UniProt Q9BY41); assay: HDAC in vitro inhibition assay; format: biochemical
T3 sequence (Q9BY41 1-377): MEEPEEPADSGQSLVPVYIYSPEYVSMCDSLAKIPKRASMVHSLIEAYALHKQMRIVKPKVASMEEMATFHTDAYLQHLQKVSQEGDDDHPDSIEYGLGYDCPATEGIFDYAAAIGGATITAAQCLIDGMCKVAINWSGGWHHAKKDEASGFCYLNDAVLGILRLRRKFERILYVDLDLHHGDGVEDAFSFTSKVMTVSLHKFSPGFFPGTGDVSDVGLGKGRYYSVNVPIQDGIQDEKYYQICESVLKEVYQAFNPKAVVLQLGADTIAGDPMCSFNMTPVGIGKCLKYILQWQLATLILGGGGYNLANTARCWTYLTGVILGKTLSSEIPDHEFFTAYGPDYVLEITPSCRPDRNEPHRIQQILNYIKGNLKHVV

MMP-3 = MMP-3 (Homo sapiens, UniProt P08254); assay: MMP in vitro inhibition assay, MMP-3; format: biochemical
MMP-3, sequence (P08254 100-477): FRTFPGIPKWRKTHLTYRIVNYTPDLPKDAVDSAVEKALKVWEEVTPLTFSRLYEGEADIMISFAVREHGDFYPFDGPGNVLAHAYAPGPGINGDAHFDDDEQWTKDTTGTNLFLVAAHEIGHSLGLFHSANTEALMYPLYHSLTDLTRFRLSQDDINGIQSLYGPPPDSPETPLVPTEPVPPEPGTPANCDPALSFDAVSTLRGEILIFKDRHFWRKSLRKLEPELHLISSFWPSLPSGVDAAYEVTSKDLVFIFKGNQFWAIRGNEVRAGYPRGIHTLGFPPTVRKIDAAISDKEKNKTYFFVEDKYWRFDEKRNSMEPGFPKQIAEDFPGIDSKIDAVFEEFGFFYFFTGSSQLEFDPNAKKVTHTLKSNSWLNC

A549 = conditions: at 100 μM; cited from earlier work
MMP-14 = MMP-14 (Homo sapiens, UniProt P50281); assay: MMP in vitro inhibition assay, MMP-14; format: biochemical
MMP-1 = target: T4, MMP-1 (Homo sapiens, UniProt P03956); assay: MMP in vitro inhibition assay, MMP-1; format: biochemical
T4 sequence (P03956 100-469): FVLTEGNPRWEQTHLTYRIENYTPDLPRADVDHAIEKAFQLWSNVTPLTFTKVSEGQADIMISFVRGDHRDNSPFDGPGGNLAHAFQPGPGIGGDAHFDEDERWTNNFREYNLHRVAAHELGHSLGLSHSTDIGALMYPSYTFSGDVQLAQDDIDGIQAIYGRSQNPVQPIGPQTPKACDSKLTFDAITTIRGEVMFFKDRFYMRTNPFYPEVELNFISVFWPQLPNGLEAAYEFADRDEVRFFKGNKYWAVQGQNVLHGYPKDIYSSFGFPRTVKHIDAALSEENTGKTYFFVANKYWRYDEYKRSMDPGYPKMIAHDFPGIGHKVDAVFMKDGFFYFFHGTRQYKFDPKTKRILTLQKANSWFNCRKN

[1] = test system: Galleria mellonella larvae infection model; conditions: cited from earlier work
[2] = test system: NDM-1-expressing K. pneumoniae (T2301); assay: Growth inhibition assay; conditions: imipenem alone at 8 μg mL−1 (0.5× MIC)

Q: With `O=C(CS)Nc1ccccc1Cl` [Compound 26] as the compound, how does the ColH inhibitory activity (collagenase H (ColH)) read?
A: micromolar activities

Q: Which “inhibition at 100 μM, MMP-2” value (MMP-2; 100 μM) does the source give for `O=C(CS)Nc1ccc(Cl)c(Cl)c1` [Compound 1] here?
A: no inhibition

Q: What about the inhibition at 100 µM (MMP-2; read-out: inhibition at 100 μM, MMP-2) of the same compound?
A: ≤ 10%

Q: What about the “inhibition at 100 μM, HDAC-3” value (HDAC-3) of the same compound?
A: no inhibition

Q: What about the “maximum tolerated concentration (MTC)” value (zebrafish embryos) of the same compound?
A: 10 µM

Q: And the ColH inhibitory activity (collagenase H (ColH))?
A: micromolar activities

Q: And the “cytotoxicity against HepG2” value (HepG2)?
A: did not show any cytotoxicity

Q: What about the “cytotoxicity against HEK293” value (HEK293) of the same compound?
A: did not show any cytotoxicity

Q: And the “inhibition at 100 μM, MMP-8” value (MMP-8; 100 μM)?
A: no inhibition

Q: And the inhibition at 100 µM (MMP-8; read-out: inhibition at 100 μM, MMP-8)?
A: ≤ 10%

Q: And the “inhibition at 100 μM, MMP-7” value (MMP-7; 100 μM)?
A: no inhibition

Q: And the inhibition at 100 µM (MMP-7; read-out: inhibition at 100 μM, MMP-7)?
A: ≤ 10%

Q: And the “inhibition at 100 μM, HDAC-8” value (HDAC-8)?
A: no inhibition

Q: What about the “inhibition at 100 μM, MMP-3” value (MMP-3; 100 μM) of the same compound?
A: no inhibition

Q: And the inhibition at 100 µM (MMP-3; read-out: inhibition at 100 μM, MMP-3)?
A: ≤ 10%

Q: What about the “cytotoxicity against A549” value (A549) of the same compound?
A: did not show any cytotoxicity

Q: What about the “inhibition at 100 μM, MMP-14” value (MMP-14; 100 μM) of the same compound?
A: no inhibition

Q: And the inhibition at 100 µM (MMP-14; read-out: inhibition at 100 μM, MMP-14)?
A: ≤ 10%

Q: And the “inhibition at 100 μM, MMP-1” value (MMP-1; 100 μM)?
A: no inhibition

Q: What about the inhibition at 100 µM (MMP-1; read-out: inhibition at 100 μM, MMP-1) of the same compound?
A: ≤ 10%

Q: And the in vivo efficacy [1]?
A: in vivo efficacy

Q: For `C[C@@H](O)[C@H]1C(=O)N2C(C(=O)O)=C(SCCNC=N)C[C@H]12` [imipenem], which “Growth of imipenem-treated bacteria vs imipenem-free control after 24 hours” value [2] is on record?
A: no relevant differences

Q: Which ColH inhibitory potency (collagenase H (ColH)) does the source give for `CC(=O)c1ccc(NC(=O)CS)cc1` [Compound 28] here?
A: nanomolar

Reference: publication PMC8528214 (RSC Medicinal Chemistry, 2021)
